This passage reports inhibition results from patent publication US8222264B2, “Substituted amino-quinazolinones, medicaments comprising said compound, their use and their method of manufacture” (Boehringer Ingelheim International GmbH, priority 2007, dated 2012).

T1 sequence (P56817 22-454): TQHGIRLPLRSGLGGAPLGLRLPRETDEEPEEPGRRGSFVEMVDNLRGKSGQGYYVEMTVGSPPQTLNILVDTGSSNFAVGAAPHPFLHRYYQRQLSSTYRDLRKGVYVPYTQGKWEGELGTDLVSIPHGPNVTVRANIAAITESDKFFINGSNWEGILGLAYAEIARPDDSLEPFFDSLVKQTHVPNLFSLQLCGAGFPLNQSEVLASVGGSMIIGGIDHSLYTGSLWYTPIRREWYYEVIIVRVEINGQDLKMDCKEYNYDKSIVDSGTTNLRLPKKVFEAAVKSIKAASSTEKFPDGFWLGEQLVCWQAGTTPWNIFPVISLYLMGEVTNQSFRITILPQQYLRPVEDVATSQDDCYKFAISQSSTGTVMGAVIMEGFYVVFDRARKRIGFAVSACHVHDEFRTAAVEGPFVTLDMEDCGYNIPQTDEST

This assay concerns the target T1, β-secretase (ectodomain of BACE, amino acids 1-454) (Homo sapiens, UniProt P56817).
T1 construct: poly-histidine; made in house; host or cells: HEK293/APP/BACEect. cells; unpurified culture supernatant in OptiMEM used as enzyme source
In words: β-secretase activity assay, fluorescence-quenched Cy3/Cy5Q peptide substrate. The class given is biochemical. The conditions noted are these: 100 μM test compound; positive control minus negative control = 100%; values above 100% adjusted to 100%. The protocol: To calculate the IC50 value of a substance different amounts of substance are incubated with the β-secretase in an assay. The IC50 value of a compound is defined as the concentration of substance at which a 50% reduction in the detected signal is measured, compared with the mixture without the test compound. Substances are evaluated as inhibiting β-secretase if under these conditions their IC50 value is less than 50 μM, preferably less than 10 μM and particularly preferably less than 1 μM.
In detail, an assay for detecting β-secretase activity may be as follows: The ectodomain of BACE (amino acids 1-454) fused to the recognition sequence for an anti-Myc antibody and a poly-histidine is secreted overnight by HEK293/APP/BACEect. cells in OptiMEM® (Invitrogen). A 10 μl aliquot of this cell culture supernatant is used as the enzyme source. The enzyme is stable over more than 3 months' storage at 4° C. or −20° C. in OptiMEM®. The substrate used is a peptide with the amino acid sequence SEVNLDAEFK, to which the Cy3 fluorophore (Amersham) is coupled N-terminally and the Cy5Q fluorophore (Amersham) is coupled C-terminally. The substrate is dissolved in DMSO in a concentration of 1 mg/ml and used in the experiment in a concentration of 1 μM. The test mixture also contains 20 mM NaOAc, pH 4.4 and a maximum of 1% DMSO. The test is carried out in a 96-well plate in a total volume of 200 μl for 30 minutes at 30° C. The cleaving of the substrate is recorded kinetically in a fluorimeter (ex: 530 nm, em: 590 nm). The assay is started by adding the substrate.
Mixtures without enzyme (i.e. negative control) or without inhibitor (i.e. positive control) are included in each plate as controls.
The activity of the positive control (minus the negative control=background) is set to 100% and activity in the presence of test compound is expressed relative to these 100%. […]
IC50 can be calculated with Graph Pad Prism or other suited software setting the positive control minus the negative control as 100. […]
Turning to `CCOc1ccccc1-c1ccc2nc(N)n(C(CCC(=O)N(C)C3CCCCC3)C3CCCCC3)c(=O)c2c1` (stereo not drawn) [Example 2], the inhibition at 100 µM amounted to 81%. Then `CN(C(=O)CC[C@@H](C1CCCCC1)n1c(N)nc2ccc(Oc3ccccc3)cc2c1=O)C1CCCCC1` [Example 1], with 98%; and `CN(C(=O)CCC(C1CCCCC1)n1c(N)nc2ccc(Br)cc2c1=O)C1CCCCC1` (stereo not drawn) [Example 3], with 91%.

What is called inhibition is the relative decrease from the control value, in per cent. The low end stands for a weak effect, the high end for a strong effect.
